From the NIST ThermoML archive (doi:10.1016/j.fluid.2019.01.011)
Numbers after ± are expanded uncertainties.

Conditions: Crystal; DSC

Row | Triple point temperature | SMILES
1 | 918 ± 10 K | [Cl-].[Cs+] [cesium chloride]
2 | 587 ± 10 K | [Cl-].[Cl-].[Zn+2] [zinc chloride]
